Consider twelve compounds from patent publication EP3248604A1, “AGENTS FOR MODULATION OF WNT-TCF SIGNALLING AND USES THEREOF” (UNIVERSITE DE GENEVE, priority 2016, dated 2017).

One assay concerns WNT-TCF targets. The assay can be described thus: RT-qPCR gene expression in Ls174T cells. In kind it is cell-based, human. The conditions noted are these: for fold induction at 0.5 µM / fold induction at 5 µM: Homo sapiens. On the procedure: RT-qPCR was performed as in Melotti et al. (2014, supra) using BioRad equipment and reagents. Cells cultured in nitro were treated with the desired concentration of drug in DMEM-F12 and reduced serum (2.5% FBS) for 16h, unless otherwise noted, and collected in Trizol (Sigma) before total RNA extraction and cDNA synthesis. Primers were as in Table 1. HPRT (gene encoding Hypoxanthine phosphoribosyltransferase 1) and βACTIN were used as housekeeping controls for normalization.
Compounds have been tested for the transcriptional modulation of a restricted TCF signature in human colon cancer Ls174T cells. These included the direct targets AXIN2 (gene encoding a protein axis inhibition protein 2), LGR5 (gene encoding encodes leucine-rich repeat-containing G-protein coupled receptor 5) and cMYC (a regulator gene encoding a transcription factor), which should be repressed by WNT-TCF response antagonists and p21 (or CDKN1A, gene encoding a cyclin-dependent kinase inhibitor that inhibits the complexes of CDK2 and CDK1), which should be induced.
In general terms: Real-time PCR tracks product formation cycle by cycle.

For another assay, the system named is CC14 cells. The assay can be described thus: Epithelial island morphology of CC14 cells. Format: cell-based, human. The conditions noted are these: 24h. On the procedure: Similar phenotypes were only observed at 10 µM of CAP1 or 5 µM of CAP3. CAP2 was thus chosen for further detailed analyses.
Where [1] appears, read: Ls174T, 0.5µM, 16h, over DMSO-treated controls.
Where [2] appears, read: Ls174T, 5µM, 16h, over DMSO-treated controls.
The mark [3] stands for this setting: Ls174T, 0.5µM, 16h, over DMSO-treated controls, read-out: AXIN2 expression.
Where [4] appears, read: Ls174T, 0.5µM, 16h, over DMSO-treated controls, read-out: LGR5 expression.
Setting [5] is: LS174T, 16 h, read-out: AXIN2 expression.
Setting [6] is: LS174T, 16 h, read-out: CDKN1A expression.
The mark [7] stands for this setting: LS174T, 16 h, read-out: cMYC expression.
Where [8] appears, read: Ls174T, 0.5µM, 16h, over DMSO-treated controls, read-out: CDKN1A expression.
Setting [9] is: Ls174T, 0.5µM, 16h, over DMSO-treated controls, read-out: cMYC expression.

Read-outs that look alike come from different tables or passages of the source.

`CC1=C(C)C(=O)O[C@@H]([C@@H](C)[C@H]2CC[C@H]3[C@@H]4[C@@H]5O[C@@H]5[C@@]5(O)CC=CC(=O)[C@]5(C)[C@H]4CC[C@]23C)C1` [Withanolide B, withanolide B, reference compound]: in the assay with WNT-TCF targets (setting [1]), the AXIN2 expression was determined as 1.1, the CDKN1A expression was 1.9, the LGR5 expression worked out at 1.3 and the cMYC expression stood at 1.3. For the same compound, in the assay on WNT-TCF targets (setting [2]), the AXIN2 expression is reported as 1.3 and the LGR5 expression worked out at 1.4.

In the assay with WNT-TCF targets (setting [1]), `CC1=C(C)C(=O)O[C@@H]([C@](C)(O)[C@H]2CC[C@H]3[C@@H]4[C@@H]5O[C@@H]5[C@@]5(O)CC=CC(=O)[C@]5(C)[C@H]4CC[C@]23C)C1` [Withanolide A, withanolide A, reference compound] showed an AXIN2 expression of 0.8, a CDKN1A expression of 0.7, an LGR5 expression of 0.8 and a cMYC expression of 0.4. In the assay on WNT-TCF targets (setting [2]), this compound showed an AXIN2 expression of 1.8 and an LGR5 expression of 1.3.

Regarding `CO[C@H]1[C@H](O)[C@H](O[C@H]2CC[C@@]3(C)[C@H](CC[C@@H]4[C@@H]3CC[C@]3(C)[C@@H](C5=CC(=O)OC5)CC[C@]43O)C2)O[C@@H](C)[C@@H]1O` [Neriifolin, neriifolin, reference compound], the results for the fold induction at 0.5 µM with WNT-TCF targets (setting [3]) and in the assay on WNT-TCF targets (setting [4]) were 1.2 and 1.8, respectively.

On to “2,6-dimethyltetrahydropyran-3,4,5-triol; ethane; 3-(3,14,16-trihydroxy-10,13-dimethyl-1,2,3,4,5,6,7,8,9,11,12,15,16,17-tetradecahydro cyclopenta[a]phenanthren-17-yl)-2H-furan-5-one [CAP3]”, for which, in the assay on CC14 cells (1 µM), the epithelial island morphology result was “maintained”. Further, in the assay with CC14 cells, the “concentration at which disrupted morphology phenotype was observed” value is recorded as 5 µM. In the assay on WNT-TCF targets (Ls174T, 10 µM, 16h), this compound had an AXIN2 expression of 0.7, a CDKN1A expression of 6.3, an LGR5 expression of 0.2 and a cMYC expression of 0.2.

`C[C@H]1O[C@@H](O[C@H]2[C@@H](O)C[C@H](O[C@H]3[C@@H](O)C[C@H](O[C@H]4CC[C@@]5(C)[C@H](CC[C@@H]6[C@@H]5CC[C@]5(C)[C@@H](C7=CC(=O)OC7)[C@@H](O)C[C@]65O)C4)O[C@@H]3C)O[C@@H]2C)C[C@H](O)[C@@H]1O` [Gitoxin, gitoxin, reference compound]: the fold induction at 0.5 µM in the assay with WNT-TCF targets (setting [5]) is 0.4; with WNT-TCF targets (setting [6]), 1.3; with WNT-TCF targets (setting [7]) it was 0.8.

`C[C@H]1O[C@@H](O[C@H]2[C@@H](O)C[C@H](O[C@H]3[C@@H](O)C[C@H](O[C@H]4CC[C@@]5(C)[C@H](CC[C@@H]6[C@@H]5CC[C@]5(C)[C@@H](C7=CC(=O)OC7)CC[C@]65O)C4)O[C@@H]3C)O[C@@H]2C)C[C@H](O)[C@@H]1O` [Digitoxin, digitoxin, reference compound]: the fold induction at 0.5 µM in the assay with WNT-TCF targets (setting [3]) amounted to 0.6; in the assay on WNT-TCF targets (setting [8]), 1.7; in the assay with WNT-TCF targets (setting [4]), 2.1; in the assay with WNT-TCF targets (setting [9]), 0.2. Further, the LGR5 repression result with WNT-TCF targets (Ls174T, lower doses 100 and 10 nM) is recorded as “lack of repressing on LGR5”.

As for `C[C@@H]1O[C@@H](O[C@H]2C[C@@H](O)[C@]3(CO)[C@H]4[C@H](O)C[C@]5(C)[C@@H](C6=CC(=O)OC6)CC[C@]5(O)[C@@H]4CC[C@]3(O)C2)[C@H](O)[C@H](O)[C@H]1O` [Ouabain, ouabain, reference compound], the fold induction at 0.5 µM came out at 0.8 with WNT-TCF targets (setting [3]), 10 in the assay on WNT-TCF targets (setting [8]), 3.3 in the assay with WNT-TCF targets (setting [4]) and 0.5 in the assay with WNT-TCF targets (setting [9]). The fold induction at 5 µM with WNT-TCF targets (Ls174T, 5µM, 16h, over DMSO-treated controls, read-out: AXIN2 expression) is 1; in the assay on WNT-TCF targets (Ls174T, 5µM, 16h, over DMSO-treated controls, read-out: LGR5 expression), 1.4.

Regarding `CO[C@H]1C[C@H](O[C@H]2CC[C@]3(C=O)[C@H]4CC[C@]5(C)[C@@H](C6=CC(=O)OC6)CC[C@]5(O)[C@@H]4CC[C@]3(O)C2)O[C@H](C)[C@H]1O` [Cymarin, cymarin, reference compound], the fold induction at 0.5 µM was 1 in the assay with WNT-TCF targets (setting [3]), 0.9 in the assay with WNT-TCF targets (setting [8]), 0.9 in the assay on WNT-TCF targets (setting [4]) and 1 in the assay with WNT-TCF targets (setting [9]).

For `C[C@H]1O[C@@H](O[C@H]2[C@@H](O)C[C@H](O[C@H]3[C@@H](O)C[C@H](O[C@H]4CC[C@@]5(C)[C@H](CC[C@@H]6[C@@H]5C[C@@H](O)[C@]5(C)[C@@H](C7=CC(=O)OC7)CC[C@]65O)C4)O[C@@H]3C)O[C@@H]2C)C[C@H](O)[C@@H]1O` [Digoxin, digoxin, reference compound], the fold induction at 0.5 µM with WNT-TCF targets (setting [3]) amounted to 0.5; in the assay with WNT-TCF targets (setting [8]), 3; in the assay on WNT-TCF targets (setting [4]), 6.6; with WNT-TCF targets (setting [9]), 1.1.

For the compound `CO[C@H]1C[C@H](O[C@H]2CC[C@@]3(C)[C@H](CC[C@@H]4[C@@H]3CC[C@]3(C)[C@@H](C5=CC(=O)OC5)[C@@H](OC(C)=O)C[C@]43O)C2)O[C@@H](C)[C@@H]1O` [Oleandrin, oleandrin, reference compound], the fold induction at 0.5 µM in the assay with WNT-TCF targets (setting [3]) worked out at 1.6; in the assay with WNT-TCF targets (setting [8]), 1.1; in the assay on WNT-TCF targets (setting [4]), 0.5; in the assay with WNT-TCF targets (setting [9]), 0.1.

For the compound `C[C@@H]1O[C@@H](O[C@H]2CC[C@]3(C=O)[C@H]4CC[C@]5(C)[C@@H](C6=CC(=O)OC6)CC[C@]5(O)[C@@H]4CC[C@]3(O)C2)[C@H](O)[C@H](O)[C@H]1O` [Convallatoxin, convallatoxin, reference compound], the fold induction at 0.5 µM in the assay on WNT-TCF targets (setting [5]) was 1.7; in the assay with WNT-TCF targets (setting [6]), 0.3; with WNT-TCF targets (LS174T, 16 h, read-out: LGR5 expression), 1.6; in the assay with WNT-TCF targets (setting [7]), 0.2.

Take `C[C@]12CC[C@H](O)C[C@H]1CC[C@@H]1[C@@H]2CC[C@]2(C)[C@@H](C3=CC(=O)OC3)[C@@H](O)C[C@]12O` [Gitoxigenin, gitoxigenin, reference compound]: the fold induction at 0.5 µM came to 1 with WNT-TCF targets (setting [3]), 0.3 in the assay with WNT-TCF targets (setting [8]), 0.6 with WNT-TCF targets (setting [4]) and 0.4 in the assay on WNT-TCF targets (setting [9]).
